Like-named read-outs stand apart in the source and are kept apart here.
Tests used:
Assay in all cases: Glasshouse assay for herbicidal activity (pre- and post-emergence), percentage phytotoxicity
Assay type in all cases: in vivo
[1] = test system: Alopecurus myosuroides (ALOMY); conditions: Alopecurus myosuroides
Summary of the method: (§1)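 Pot-grown, standard soil. PRE: spray 1 d post-sowing; POST: ~12 d. Glasshouse 24/18 °C (warm spp.) / 20/16 °C (cool spp.), 16 h light, 65% RH, watered 2×/day. Visual % damage, 20 DAA PRE, 15 DAA POST.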

Avena fatua (AVEFA) = conditions: Avena fatua
Summary of the method: as §1

[2] = test system: Echinochloa crus-galli (ECHCG); conditions: Echinochloa crus-galli
Summary of the method: as §1

Lolium perenne (LOLPE) = conditions: Lolium perenne
Summary of the method: as §1

[3] = post-emergence, 360 h, Rate 250 g/ha, post-emergence, visual assessment 15 DAA, 100%=total damage, 0%=no damage, read-out: Post-emergence herbicidal activity (percentage phytotoxicity) ALOMY POST
[4] = pre-emergence, 480 h, Rate 250 g/ha, pre-emergence, visual assessment 20 DAA, 100%=total damage, 0%=no damage, read-out: Pre-emergence herbicidal activity (percentage phytotoxicity) ALOMY PRE
[5] = post-emergence, 360 h, Rate 250 g/ha, post-emergence, visual assessment 15 DAA, 100%=total damage, 0%=no damage, read-out: Post-emergence herbicidal activity (percentage phytotoxicity) AVEFA POST
[6] = pre-emergence, 480 h, Rate 250 g/ha, pre-emergence, visual assessment 20 DAA, 100%=total damage, 0%=no damage, read-out: Pre-emergence herbicidal activity (percentage phytotoxicity) AVEFA PRE
[7] = post-emergence, 360 h, Rate 250 g/ha, post-emergence, visual assessment 15 DAA, 100%=total damage, 0%=no damage, read-out: Post-emergence herbicidal activity (percentage phytotoxicity) ECHCG POST
[8] = pre-emergence, 480 h, Rate 250 g/ha, pre-emergence, visual assessment 20 DAA, 100%=total damage, 0%=no damage, read-out: Pre-emergence herbicidal activity (percentage phytotoxicity) ECHCG PRE
[9] = post-emergence, 360 h, Rate 250 g/ha, post-emergence, visual assessment 15 DAA, 100%=total damage, 0%=no damage, read-out: Post-emergence herbicidal activity (percentage phytotoxicity) LOLPE POST
[10] = pre-emergence, 480 h, Rate 250 g/ha, pre-emergence, visual assessment 20 DAA, 100%=total damage, 0%=no damage, read-out: Pre-emergence herbicidal activity (percentage phytotoxicity) LOLPE PRE
[11] = post-emergence, 360 h, 250 g/ha, post-emergence, 15 DAA, visual assessment (100%=total damage, 0%=no damage), read-out: Post-emergence herbicidal activity (percentage phytotoxicity) ALOMY POST
[12] = pre-emergence, 480 h, 250 g/ha, pre-emergence, 20 DAA, visual assessment (100%=total damage, 0%=no damage), read-out: Pre-emergence herbicidal activity (percentage phytotoxicity) ALOMY PRE
[13] = post-emergence, 360 h, 250 g/ha, post-emergence, 15 DAA, visual assessment (100%=total damage, 0%=no damage), read-out: Post-emergence herbicidal activity (percentage phytotoxicity) AVEFA POST
[14] = pre-emergence, 480 h, 250 g/ha, pre-emergence, 20 DAA, visual assessment (100%=total damage, 0%=no damage), read-out: Pre-emergence herbicidal activity (percentage phytotoxicity) AVEFA PRE
[15] = post-emergence, 360 h, 250 g/ha, post-emergence, 15 DAA, visual assessment (100%=total damage, 0%=no damage), read-out: Post-emergence herbicidal activity (percentage phytotoxicity) ECHCG POST
[16] = pre-emergence, 480 h, 250 g/ha, pre-emergence, 20 DAA, visual assessment (100%=total damage, 0%=no damage), read-out: Pre-emergence herbicidal activity (percentage phytotoxicity) ECHCG PRE
[17] = post-emergence, 360 h, 250 g/ha, post-emergence, 15 DAA, visual assessment (100%=total damage, 0%=no damage), read-out: Post-emergence herbicidal activity (percentage phytotoxicity) LOLPE POST
[18] = pre-emergence, 480 h, 250 g/ha, pre-emergence, 20 DAA, visual assessment (100%=total damage, 0%=no damage), read-out: Pre-emergence herbicidal activity (percentage phytotoxicity) LOLPE PRE
[19] = post-emergence, 360 h, Rate 250 g/ha, post-emergence, assessed visually 15 DAA, 100%=total damage, 0%=no damage, read-out: Post-emergence herbicidal activity (percentage phytotoxicity) ALOMY POST
[20] = pre-emergence, 480 h, Rate 250 g/ha, pre-emergence, assessed visually 20 DAA, 100%=total damage, 0%=no damage, read-out: Pre-emergence herbicidal activity (percentage phytotoxicity) ALOMY PRE
[21] = post-emergence, 360 h, Rate 250 g/ha, post-emergence, assessed visually 15 DAA, 100%=total damage, 0%=no damage, read-out: Post-emergence herbicidal activity (percentage phytotoxicity) AVEFA POST
[22] = pre-emergence, 480 h, Rate 250 g/ha, pre-emergence, assessed visually 20 DAA, 100%=total damage, 0%=no damage, read-out: Pre-emergence herbicidal activity (percentage phytotoxicity) AVEFA PRE
[23] = post-emergence, 360 h, Rate 250 g/ha, post-emergence, assessed visually 15 DAA, 100%=total damage, 0%=no damage, read-out: Post-emergence herbicidal activity (percentage phytotoxicity) ECHCG POST
[24] = pre-emergence, 480 h, Rate 250 g/ha, pre-emergence, assessed visually 20 DAA, 100%=total damage, 0%=no damage, read-out: Pre-emergence herbicidal activity (percentage phytotoxicity) ECHCG PRE
[25] = post-emergence, 360 h, Rate 250 g/ha, post-emergence, assessed visually 15 DAA, 100%=total damage, 0%=no damage, read-out: Post-emergence herbicidal activity (percentage phytotoxicity) LOLPE POST
[26] = pre-emergence, 480 h, Rate 250 g/ha, pre-emergence, assessed visually 20 DAA, 100%=total damage, 0%=no damage, read-out: Pre-emergence herbicidal activity (percentage phytotoxicity) LOLPE PRE

Compound	pest or weed control at 250 g/ha [1, 11]	pest or weed control at 250 g/ha [1, 12]	pest or weed control at 250 g/ha (Avena fatua (AVEFA); [13])	pest or weed control at 250 g/ha (Avena fatua (AVEFA); [14])	pest or weed control at 250 g/ha [2, 15]	pest or weed control at 250 g/ha [2, 16]	pest or weed control at 250 g/ha (Lolium perenne (LOLPE); [17])	pest or weed control at 250 g/ha (Lolium perenne (LOLPE); [18])	pest or weed control at 250 g/ha [1, 19]	pest or weed control at 250 g/ha [1, 20]	pest or weed control at 250 g/ha (Avena fatua (AVEFA); [21])	pest or weed control at 250 g/ha (Avena fatua (AVEFA); [22])	pest or weed control at 250 g/ha [2, 23]	pest or weed control at 250 g/ha [2, 24]	pest or weed control at 250 g/ha (Lolium perenne (LOLPE); [25])	pest or weed control at 250 g/ha (Lolium perenne (LOLPE); [26])	other results
C=Cc1cc(-c2ccc(Cl)cn2)cc(C)c1C1C(=O)CC(CC(=O)NC(C)(C)C)C1=O (stereo not drawn) [Compound B376]	–	–	–	–	–	–	–	–	–	–	–	–	–	–	–	–	pest or weed control at 250 g/ha [1, 3]: 90%; pest or weed control at 250 g/ha [1, 4]: 30%; pest or weed control at 250 g/ha (Avena fatua (AVEFA); [5]): 90%; pest or weed control at 250 g/ha (Avena fatua (AVEFA); [6]): 80%; pest or weed control at 250 g/ha [2, 7]: 100%; pest or weed control at 250 g/ha [2, 8]: 60%; pest or weed control at 250 g/ha (Lolium perenne (LOLPE); [9]): 100%; pest or weed control at 250 g/ha (Lolium perenne (LOLPE); [10]): 60%
Cc1cc(C)c(C2C(=O)CC(CC(=O)NCC3CC3(Cl)Cl)C2=O)c(C)c1 (stereo not drawn) [Compound B40]	80%	90%	90%	70%	90%	90%	80%	90%	–	–	–	–	–	–	–	–	–
C#CCNC(=O)CC1CC(=O)C(c2c(C)cc(C#CC)cc2C)C1=O (stereo not drawn) [Compound A28]	–	–	–	–	–	–	–	–	100%	100%	100%	100%	100%	90%	100%	90%	–
Cc1cc(-c2ncc(Cl)cc2F)cc(C)c1C1C(=O)CC(CC(N)=O)C1=O (stereo not drawn) [Compound B53]	90%	90%	100%	100%	100%	90%	100%	90%	–	–	–	–	–	–	–	–	–
CCc1cc(C)cc(C)c1C1C(=O)CC(CC(=O)NCc2ccc(OC)cc2)C1=O (stereo not drawn) [Compound B253]	–	–	–	–	–	–	–	–	–	–	–	–	–	–	–	–	pest or weed control at 250 g/ha ([1]; post-emergence, 360 h, POST-emergence, rate 250 g/ha, visual score 15 DAA (100%=total damage, 0%=no damage), read-out: Post-emergence herbicidal activity (percentage phytotoxicity) ALOMY POST): 100%; pest or weed control at 250 g/ha ([1]; pre-emergence, 480 h, PRE-emergence, rate 250 g/ha, visual score 20 DAA (100%=total damage, 0%=no damage), read-out: Pre-emergence herbicidal activity (percentage phytotoxicity) ALOMY PRE): 100%; pest or weed control at 250 g/ha (Avena fatua (AVEFA); post-emergence, 360 h, POST-emergence, rate 250 g/ha, visual score 15 DAA (100%=total damage, 0%=no damage), read-out: Post-emergence herbicidal activity (percentage phytotoxicity) AVEFA POST): 100%; pest or weed control at 250 g/ha (Avena fatua (AVEFA); pre-emergence, 480 h, PRE-emergence, rate 250 g/ha, visual score 20 DAA (100%=total damage, 0%=no damage), read-out: Pre-emergence herbicidal activity (percentage phytotoxicity) AVEFA PRE): 80%; pest or weed control at 250 g/ha ([2]; post-emergence, 360 h, POST-emergence, rate 250 g/ha, visual score 15 DAA (100%=total damage, 0%=no damage), read-out: Post-emergence herbicidal activity (percentage phytotoxicity) ECHCG POST): 100%; pest or weed control at 250 g/ha ([2]; pre-emergence, 480 h, PRE-emergence, rate 250 g/ha, visual score 20 DAA (100%=total damage, 0%=no damage), read-out: Pre-emergence herbicidal activity (percentage phytotoxicity) ECHCG PRE): 90%; pest or weed control at 250 g/ha (Lolium perenne (LOLPE); post-emergence, 360 h, POST-emergence, rate 250 g/ha, visual score 15 DAA (100%=total damage, 0%=no damage), read-out: Post-emergence herbicidal activity (percentage phytotoxicity) LOLPE POST): 100%; pest or weed control at 250 g/ha (Lolium perenne (LOLPE); pre-emergence, 480 h, PRE-emergence, rate 250 g/ha, visual score 20 DAA (100%=total damage, 0%=no damage), read-out: Pre-emergence herbicidal activity (percentage phytotoxicity) LOLPE PRE): 90%
C=CCNC(=O)CC1CC(=O)C(c2c(C)cc(-c3ncc(Cl)cc3F)cc2C)C1=O (stereo not drawn) [Compound B116]	100%	100%	100%	90%	100%	100%	100%	100%	–	–	–	–	–	–	–	–	–
CC#Cc1cc(C)c(C2C(=O)CC(CC(=O)NC(C)C)C2=O)c(CC)c1 (stereo not drawn) [Compound A54]	–	–	–	–	–	–	–	–	100%	100%	100%	100%	100%	100%	100%	100%	–
Cc1cc(C)c(C2C(=O)CC(CC(=O)NCc3ccc(C#N)cc3)C2=O)c(C)c1 (stereo not drawn) [Compound B69]	40%	50%	100%	80%	80%	90%	80%	90%	–	–	–	–	–	–	–	–	–
Cc1cc(-c2ncc(Cl)cc2F)cc(C)c1C1C(=O)CC(CC(=O)NCc2ccc(OC(F)(F)F)cc2)C1=O (stereo not drawn) [Compound A121]	–	–	–	–	–	–	–	–	100%	90%	100%	90%	100%	90%	100%	80%	–
Cc1cc(-c2ncc(Cl)cc2F)cc(C)c1C1C(=O)CC(CC(=O)NCc2cccc([N+](=O)[O-])c2)C1=O (stereo not drawn) [Compound A122]	–	–	–	–	–	–	–	–	90%	70%	100%	0%	100%	90%	70%	20%	–
C=CC(C)NC(=O)CC1CC(=O)C(c2c(C)cc(-c3ncc(Cl)cn3)cc2C)C1=O (stereo not drawn) [Compound B345]	–	–	–	–	–	–	–	–	–	–	–	–	–	–	–	–	pest or weed control at 250 g/ha [1, 3]: 100%; pest or weed control at 250 g/ha [1, 4]: 100%; pest or weed control at 250 g/ha (Avena fatua (AVEFA); [5]): 100%; pest or weed control at 250 g/ha (Avena fatua (AVEFA); [6]): 90%; pest or weed control at 250 g/ha [2, 7]: 100%; pest or weed control at 250 g/ha [2, 8]: 100%; pest or weed control at 250 g/ha (Lolium perenne (LOLPE); [9]): 100%; pest or weed control at 250 g/ha (Lolium perenne (LOLPE); [10]): 100%
COCC(C)NC(=O)CC1CC(=O)C(c2c(C)cc(-c3ncc(F)cc3F)cc2C)C1=O (stereo not drawn) [Compound B335]	–	–	–	–	–	–	–	–	–	–	–	–	–	–	–	–	pest or weed control at 250 g/ha [1, 3]: 100%; pest or weed control at 250 g/ha [1, 4]: 100%; pest or weed control at 250 g/ha (Avena fatua (AVEFA); [5]): 100%; pest or weed control at 250 g/ha (Avena fatua (AVEFA); [6]): 100%; pest or weed control at 250 g/ha [2, 7]: 100%; pest or weed control at 250 g/ha [2, 8]: 90%; pest or weed control at 250 g/ha (Lolium perenne (LOLPE); [9]): 100%; pest or weed control at 250 g/ha (Lolium perenne (LOLPE); [10]): 100%

From US10206394B2, “Herbicidal compounds” (Syngenta Participations AG, priority 2014, dated 2019)
